The first assay deals with recombinant human Nav1.7 (Homo sapiens (Human), UniProt Q15858). Kind of assay: FRET-based membrane potential assay, recombinant human sodium channel Nav1.7. The conditions noted are these: HEK293 cells stably expressing recombinant human Nav1.7; veratridine + scorpion venom depolarization; read-out: FRET-Membrane Potential Nav1.7 IC50. In kind it is cell-based. A digest of the protocol:
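Channel activation used veratridine at its EC80, set by a dilution curve each experiment, together with Leiurus scorpion venom, added 3 min after compound. Membrane-potential ratio signals from FLIPR Tetra in HEPES-buffered HBSS were fitted to a four-parameter Hill equation for percent inhibition and IC50.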
Chain of recombinant human Nav1.7 (Q15858 whole entry): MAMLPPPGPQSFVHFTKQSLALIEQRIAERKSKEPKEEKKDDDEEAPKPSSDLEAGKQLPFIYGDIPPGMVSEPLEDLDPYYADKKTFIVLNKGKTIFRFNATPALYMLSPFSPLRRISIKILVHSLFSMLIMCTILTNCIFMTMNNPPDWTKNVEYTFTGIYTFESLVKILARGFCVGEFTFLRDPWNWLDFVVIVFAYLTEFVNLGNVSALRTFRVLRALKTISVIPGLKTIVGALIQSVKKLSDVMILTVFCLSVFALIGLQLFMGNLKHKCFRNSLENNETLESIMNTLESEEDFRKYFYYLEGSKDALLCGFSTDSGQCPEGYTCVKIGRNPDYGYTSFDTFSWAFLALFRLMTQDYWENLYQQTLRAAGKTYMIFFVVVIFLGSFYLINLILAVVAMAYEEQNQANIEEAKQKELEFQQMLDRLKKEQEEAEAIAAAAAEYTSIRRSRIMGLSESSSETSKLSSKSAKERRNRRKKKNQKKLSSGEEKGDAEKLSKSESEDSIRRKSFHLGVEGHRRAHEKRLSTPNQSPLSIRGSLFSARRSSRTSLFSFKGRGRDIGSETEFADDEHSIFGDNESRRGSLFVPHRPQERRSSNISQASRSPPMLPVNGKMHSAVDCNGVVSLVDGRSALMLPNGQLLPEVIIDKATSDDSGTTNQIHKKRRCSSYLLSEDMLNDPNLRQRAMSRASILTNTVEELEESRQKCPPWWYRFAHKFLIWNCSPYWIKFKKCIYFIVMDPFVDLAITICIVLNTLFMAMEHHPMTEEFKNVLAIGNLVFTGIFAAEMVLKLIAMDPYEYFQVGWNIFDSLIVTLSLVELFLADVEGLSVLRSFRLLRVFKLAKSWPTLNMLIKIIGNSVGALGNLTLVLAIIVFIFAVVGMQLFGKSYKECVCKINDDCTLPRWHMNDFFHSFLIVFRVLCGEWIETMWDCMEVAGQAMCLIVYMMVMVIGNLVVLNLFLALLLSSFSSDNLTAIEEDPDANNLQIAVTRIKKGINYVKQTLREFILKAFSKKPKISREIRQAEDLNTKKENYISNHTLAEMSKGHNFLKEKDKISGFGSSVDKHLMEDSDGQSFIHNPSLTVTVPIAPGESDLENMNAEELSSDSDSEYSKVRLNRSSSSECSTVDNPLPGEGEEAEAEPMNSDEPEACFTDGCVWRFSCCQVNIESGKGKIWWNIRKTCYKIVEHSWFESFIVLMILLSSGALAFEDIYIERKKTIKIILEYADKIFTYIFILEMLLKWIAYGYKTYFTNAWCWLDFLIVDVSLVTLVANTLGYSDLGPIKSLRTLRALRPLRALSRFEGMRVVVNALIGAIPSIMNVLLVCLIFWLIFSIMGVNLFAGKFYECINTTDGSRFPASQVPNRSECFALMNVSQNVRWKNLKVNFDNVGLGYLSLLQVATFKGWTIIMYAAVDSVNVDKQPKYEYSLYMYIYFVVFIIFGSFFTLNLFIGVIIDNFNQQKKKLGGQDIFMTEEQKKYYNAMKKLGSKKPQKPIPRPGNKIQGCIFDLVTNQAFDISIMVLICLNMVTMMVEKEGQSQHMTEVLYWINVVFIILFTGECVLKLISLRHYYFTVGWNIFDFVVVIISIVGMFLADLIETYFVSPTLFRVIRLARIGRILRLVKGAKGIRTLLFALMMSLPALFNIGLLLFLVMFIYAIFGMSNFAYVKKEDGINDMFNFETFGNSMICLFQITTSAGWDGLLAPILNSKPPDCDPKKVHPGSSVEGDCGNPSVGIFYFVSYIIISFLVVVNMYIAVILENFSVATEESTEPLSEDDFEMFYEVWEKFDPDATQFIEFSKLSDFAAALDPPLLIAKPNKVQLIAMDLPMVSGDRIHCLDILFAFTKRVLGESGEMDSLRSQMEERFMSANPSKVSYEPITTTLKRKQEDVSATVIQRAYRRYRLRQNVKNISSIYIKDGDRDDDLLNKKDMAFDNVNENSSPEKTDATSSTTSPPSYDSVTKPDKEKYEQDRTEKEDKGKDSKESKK
What is called IC50 is the concentration at which inhibition is half-maximal. Regarding `O=C(c1ccc2cc(Oc3ccc(C(F)(F)F)cn3)ccc2n1)N1C[C@@H](F)C[C@@H]1c1cc(F)ccc1F` [Example 179, [(2R,4S)-2-(2,5-difluorophenyl)-4-fluoropyrrolidin-1-yl](6-{[5-(trifluoromethyl)pyridin-2-yl]oxy}quinolin-2-yl)methanone], the half-inhibitory concentration (IC50) worked out at 0.684 µM.

As for `O=C(c1ccc2cc(Oc3ccc(C(F)(F)F)cn3)ccc2n1)N1C[C@H](F)C[C@@H]1c1cc(F)ccc1F` [Example 180, [(2R,4R)-2-(2,5-difluorophenyl)-4-fluoropyrrolidin-1-yl](6-{[5-(trifluoromethyl)pyridin-2-yl]oxy}quinolin-2-yl)methanone], the IC50 stood at 0.675 µM. For `O=C(c1ccc2cc(Oc3ccc(C(F)(F)F)cn3)ccc2n1)N1CCN(CC(F)(F)F)CC1` [Example 181, [4-(2,2,2-trifluoroethyl)piperazin-1-yl](6-{[5-(trifluoromethyl)pyridin-2-yl]oxy}quinolin-2-yl)methanone], the IC50 was found to be 3.47 µM. For the molecule `O=C(c1ccc2cc(Oc3ccc(C(F)(F)F)cn3)ccc2n1)N1CCN(c2ccccn2)CC1` [Example 182, [4-(pyridin-2-yl)piperazin-1-yl](6-{[5-(trifluoromethyl)pyridin-2-yl]oxy}quinolin-2-yl)methanone], the half-maximal inhibitory concentration (IC50) is 0.69 µM.

Regarding `O=C(c1ccc2cc(Oc3ccc(C(F)(F)F)cn3)ccc2n1)N1CCN(S(=O)(=O)c2cccnc2)CC1` [Example 183, [4-(pyridin-3-ylsulfonyl)piperazin-1-yl](6-{[5-(trifluoromethyl)pyridin-2-yl]oxy}quinolin-2-yl)methanone], the IC50 is > 20 µM. For `O=C(c1ccc2cc(Oc3ccc(C(F)(F)F)cn3)ccc2n1)N1CCN(S(=O)(=O)N2CCCCC2)CC1` [Example 184, [4-(piperidin-1-ylsulfonyl)piperazin-1-yl](6-{[5-(trifluoromethyl)pyridin-2-yl]oxy}quinolin-2-yl)methanone], the 50% inhibitory concentration (IC50) turned out to be 0.923 µM. Take `O=C(c1ccc2cc(Oc3ccc(C(F)(F)F)cn3)ccc2n1)N1CCN(S(=O)(=O)N2CCOCC2)CC1` [Example 185, [4-(morpholin-4-ylsulfonyl)piperazin-1-yl](6-{[5-(trifluoromethyl)pyridin-2-yl]oxy}quinolin-2-yl)methanone]: the 50% inhibitory concentration (IC50) was > 20 µM. For `COC(=O)N1CCN(C(=O)c2ccc3cc(Oc4ccc(C(F)(F)F)cn4)ccc3n2)CC1` [Example 186, methyl 4-[(6-{[5-(trifluoromethyl)pyridin-2-yl]oxy}quinolin-2-yl)carbonyl]piperazine-1-carboxylate], the half-inhibitory concentration (IC50) came out at 3.97 µM. `CN(C)C(=O)N1CCN(C(=O)c2ccc3cc(Oc4ccc(C(F)(F)F)cn4)ccc3n2)CC1` [Example 187, N,N-dimethyl-4-[(6-{[5-(trifluoromethyl)pyridin-2-yl]oxy}quinolin-2-yl)carbonyl]piperazine-1-carboxamide]: the IC50 is > 20 µM. Same read-out and setting: to `CN1C(=O)CN(C(=O)c2ccc3cc(Oc4ccc(C(F)(F)F)cn4)ccc3n2)CC12COC2` [Example 188, 5-methyl-8-[(6-{[5-(trifluoromethyl)pyridin-2-yl]oxy}quinolin-2-yl)carbonyl]-2-oxa-5,8-diazaspiro[3.5]nonan-6-one] belongs 9.53 µM.

In the case of `O=C(c1ccc2cc(Oc3ccc(C(F)(F)F)cn3)ccc2n1)N1CC2CNCCN2C1=O` (stereo not drawn) [Example 189, 2-[(6-{[5-(trifluoromethyl)pyridin-2-yl]oxy}quinolin-2-yl)carbonyl]hexahydroimidazo[1,5-a]pyrazin-3(2H)-one], the IC50 was found to be 15.1 µM.

As to `O=C(c1ccc2cc(Oc3ccc(C(F)(F)F)cn3)ccc2n1)N1CCC(F)(F)C(O)C1` (stereo not drawn) [Example 193, (4,4-difluoro-3-hydroxypiperidin-1-yl)(6-{[5-(trifluoromethyl)pyridin-2-yl]oxy}quinolin-2-yl)methanone], the IC50 was determined as 4.25 µM. `C[C@H]1N(C(=O)c2ccc3cc(Oc4ccc(C(F)(F)F)cn4)ccc3n2)CC1(C)C` [Example 197, (6-{[5-(trifluoromethyl)pyridin-2-yl]oxy}quinolin-2-yl)[(2R)-2,3,3-trimethylazetidin-1-yl]methanone]: the 50% inhibitory concentration (IC50) was found to be 2.72 µM. In the case of `CC1(O)CN(C(=O)c2ccc3cc(Oc4ccc(C(F)(F)F)cn4)ccc3n2)C1` [Example 198, (3-hydroxy-3-methylazetidin-1-yl)(6-{[5-(trifluoromethyl)pyridin-2-yl]oxy}quinolin-2-yl)methanone], the IC50 is 2.21 µM. On the same count and under the same terms, next, `CC1(Oc2ccccc2)CN(C(=O)c2ccc3cc(Oc4ccc(C(F)(F)F)cn4)ccc3n2)C1` [Example 200, (3-methyl-3-phenoxyazetidin-1-yl)(6-{[5-(trifluoromethyl)pyridin-2-yl]oxy}quinolin-2-yl)methanone]: > 20 µM; `O=C(c1ccc2cc(Oc3ccc(C(F)(F)F)cn3)ccc2n1)N1CC(n2ccnc2)C1` [Example 202, [3-(1H-imidazol-1-yl)azetidin-1-yl](6-{[5-(trifluoromethyl)pyridin-2-yl]oxy}quinolin-2-yl)methanone]: 0.911 µM; `O=C(c1ccc2cc(Oc3ccc(C(F)(F)F)cn3)ccc2n1)N1CC(Oc2ccc(Cl)cc2)C1` [Example 203, [3-(4-chlorophenoxy)azetidin-1-yl](6-{[5-(trifluoromethyl)pyridin-2-yl]oxy}quinolin-2-yl)methanone]: > 20 µM. `O=C(c1ccc2cc(Oc3ccc(C(F)(F)F)cn3)ccc2n1)N1CC(n2cncn2)C1` [Example 204, [3-(1H-1,2,4-triazol-1-yl)azetidin-1-yl](6-{[5-(trifluoromethyl)pyridin-2-yl]oxy}quinolin-2-yl)methanone]: the IC50 worked out at 1.63 µM. Still for that read-out and setting: to `C[C@@H]1N(C(=O)c2ccc3cc(Oc4ccc(C(F)(F)F)cn4)ccc3n2)CC1(C)C` [Example 205, (6-{[5-(trifluoromethyl)pyridin-2-yl]oxy}quinolin-2-yl)[(2S)-2,3,3-trimethylazetidin-1-yl]methanone] belongs 3.17 µM; to `O=C(c1ccc2cc(Oc3ccc(C(F)(F)F)cn3)ccc2n1)N1CC(Oc2ccc(Br)cc2)C1` [Example 206, [3-(4-bromophenoxy)azetidin-1-yl](6-{[5-(trifluoromethyl)pyridin-2-yl]oxy}quinolin-2-yl)methanone], > 20 µM.

Turning to `CC(C)(O)c1ccc(Oc2ccc3nc(C(=O)N4CCNCC4)ccc3c2)cc1` [Example 209, {6-[4-(2-hydroxypropan-2-yl)phenoxy]quinolin-2-yl}(piperazin-1-yl)methanone], the concentration for half-maximal inhibition (IC50) turned out to be 8.86 µM. As to `NC(=O)c1ccc2cc(Oc3ccc(C(F)(F)F)cn3)ccc2n1` [Example 210, 6-{[5-(trifluoromethyl)pyridin-2-yl]oxy}quinoline-2-carboxamide], the IC50 was > 20 µM. Turning to `CN1CCN(C(=O)c2ccc3cc(Oc4ccc(C(F)(F)F)cn4)ccc3n2)CC1` [Example 211, (4-methylpiperazin-1-yl)(6-{[5-(trifluoromethyl)pyridin-2-yl]oxy}quinolin-2-yl)methanone], the IC50 was determined as 1.93 µM. Regarding `O=C(c1ccc2cc(Oc3ccc(C(F)(F)F)cn3)ccc2n1)N1CCC(=O)N2C[C@@H](O)C[C@H]2C1` [Example 212, (8S,9aS)-8-hydroxy-2-[(6-{[5-(trifluoromethyl)pyridin-2-yl]oxy}quinolin-2-yl)carbonyl]octahydro-5H-pyrrolo[1,2-a][1,4]diazepin-5-one], the IC50 was > 20 µM. On the same count and under the same terms, next, `O=C(c1ccc2cc(Oc3ccc(C(F)(F)F)cn3)ccc2n1)N1CC[C@@H]2CN[C@@H]2C1` [Example 213, (1S,6R)-3,8-diazabicyclo[4.2.0]oct-3-yl(6-{[5-(trifluoromethyl)pyridin-2-yl]oxy}quinolin-2-yl)methanone]: 9.4 µM; `CS(=O)(=O)c1ccc(Oc2ccc3nc(C(=O)N4CCNCC4)ccc3c2)cc1` [Example 214, {6-[4-(methylsulfonyl)phenoxy]quinolin-2-yl}(piperazin-1-yl)methanone]: > 20 µM; `O=C(c1ccc2cc(Oc3ccc(S(=O)(=O)C(F)(F)F)cc3)ccc2n1)N1CCNCC1` [Example 215, piperazin-1-yl(6-{4-[(trifluoromethyl)sulfonyl]phenoxy}quinolin-2-yl)methanone]: 0.81 µM.

The same assay, now with this note: read-out: FRET-Membrane Potential Nav1.7 IC50.
`O=C(c1ccc2cc(Oc3ccc(C(F)(F)F)cn3)ccc2n1)N1CCN(S(=O)(=O)c2ccccc2)CC1` [Example 178, [4-(phenylsulfonyl)piperazin-1-yl](6-{[5-(trifluoromethyl)pyridin-2-yl]oxy}quinolin-2-yl)methanone]: the IC50 was 0.523 µM. Take `O=C(c1ccc2cc(Oc3ccc(C(F)(F)F)cn3)ccc2n1)N1CCC(O)C(F)(F)C1` (stereo not drawn) [Example 190, (3,3-difluoro-4-hydroxypiperidin-1-yl)(6-{[5-(trifluoromethyl)pyridin-2-yl]oxy}quinolin-2-yl)methanone]: the half-inhibitory concentration (IC50) came to 12.1 µM. Regarding `COCC1(C)CN(C(=O)c2ccc3cc(Oc4ccc(C(F)(F)F)cn4)ccc3n2)C1` [Example 199, [3-(methoxymethyl)-3-methylazetidin-1-yl](6-{[5-(trifluoromethyl)pyridin-2-yl]oxy}quinolin-2-yl)methanone], the IC50 stood at 2.55 µM.

Turning to `O=C(c1ccc2cc(Oc3ccc(C(F)(F)F)cn3)ccc2n1)N1CC(Oc2ccccc2)C1` [Example 201, (3-phenoxyazetidin-1-yl)(6-{[5-(trifluoromethyl)pyridin-2-yl]oxy}quinolin-2-yl)methanone], the IC50 is > 20 µM.

`CC1(CO)CN(C(=O)c2ccc3cc(Oc4ccc(C(F)(F)F)cn4)ccc3n2)C1` [Example 207, [3-(hydroxymethyl)-3-methylazetidin-1-yl](6-{[5-(trifluoromethyl)pyridin-2-yl]oxy}quinolin-2-yl)methanone]: the IC50 came out at 3.65 µM. For `O=C1NCCN(C(=O)c2ccc3cc(Oc4ccc(C(F)(F)F)cn4)ccc3n2)C1c1ccccc1` (stereo not drawn) [Example 208, 3-phenyl-4-[(6-{[5-(trifluoromethyl)pyridin-2-yl]oxy}quinolin-2-yl)carbonyl]piperazin-2-one], the IC50 came out at 3.05 µM.

(Values after patent publication US9452986B2, “6-heteroaryloxy- or 6-aryloxy-quinoline-2-carboxamides and method of use” (AbbVie Inc., priority 2014, dated 2016).)
